Assay results reported in PMC8758724, “Molecular mechanism of agonism and inverse agonism in ghrelin receptor” (Nature Communications, 2022).
“Also recorded” adds a separate entry of the source.

How the values were obtained:
ghrelin receptor mutants = assay: IP1 accumulation, ghrelin receptor mutants, HEK293 cells, 37 °C 2 h (compound 21 containing 10 nM ghrelin); format: cell-based, human
From the text: Fig. 2 The binding mode of PF-05190457 with the ghrelin receptor. a The detailed binding mode of PF-05190457 in the orthosteric pocket of the ghrelin receptor. The |Fo| − |Fc| omit map (contoured at 3.0 σ) for PF-05190457 (shown as marine blue sticks). […] The diazaspiro core is shown in pink, arm-1 is sky blue, and arm-2 is light green. The red solid lines indicate hydrogen bonds involved in interactions with the side chains of key residues. d–f Key residues of the ghrelin receptor (wheat sticks) involved in ligand binding in cavity III (d), cavity I (e), and cavity IV (f). The binding pocket is highly hydrophobic, and the particular polar network is shown as black dotted lines. g IP1 accumulation induced by the inverse agonist PF-05190457 and antagonist compound 21. Bars represent the difference in the calculated potency (pIC50) of the inverse agonist for mutations relative to the WT ghrelin receptor. Data are colored according to extent of effect. nd not detected, **P < 0.01, ***P < 0.001 (one-way analysis of variance (ANOVA) followed by Dunnett’s test, compared with the response of WT, P < 0.001, P < 0.001, P < 0.001, P > 0.999, nd, nd, P = 0.05, nd, P < 0.001, P < 0.001, nd, nd, nd, nd, nd, nd, P < 0.01, P = 0.264, P < 0.001, nd, P < 0.001, nd from left to right). Data represent the mean ± SEM from n = 3 biologically independent experiments performed in triplicate. […] The salt bridges between E124^3.33 and R283^6.55 as well as between R102^2.63 and Q120^3.29, are broken upon PF-05190457 binding.
To measure the activity of inverse agonist PF-05190457 (Tocris, Cat. No. 6350), we carried out IP1 accumulation assays for ghrelin receptor independent of agonist. The agonist ghrelin and antagonist compound 21 were also performed as the control. The cDNA of ghrelin receptor subcloned into pcDNA3.1(+) expression vector with a HA signal sequence followed by a Flag tag at the N-terminus. Point mutations used in our study were generated by using Q5 site-Directed Mutagenesis kit (NEB). All the constructs were verified by sequencing. The constructs were expressed in HEK293 cells using PEI transfection reagent (YEASEN, 40815es03) according to the manufacturer’s instruction. Cells were harvested 48 h post transfection.
IP accumulation was measured using Cisbio IP1 assay kit (Cisbio, 62IPAPEB), which has been previously described. In brief, the harvested cells were distributed in a low volume 96-well dish and stimulated with increased concentration of inverse agonist PF-05190457, agonist ghrelin peptide or antagonist compound 21 containing 10 nM ghrelin peptide at 37 °C for 2 h. After that, d2-labeled IP1 and cryptate-labeled anti-IP1 monoclonal antibody dissolved in Lysis Buffer were added to the wells. After 1 h incubation at room temperature. IP1 was quantified using Synergy H1 microplate reader (BioTek) with excitation at 320 nm, emission at 620 nm, and 665 nm. The accumulation of IP1 was calculated according to a standard dose–response curve in GraphPad Prism 8 (GraphPad Software). Data were represented as the mean ± SEM from three independent experiments and all experiments were repeated at least three times.
Supplementary Fig. 6: IP1 accumulation assay.
(a) Expression level of the ghrelin receptor mutants. Data represent the mean ± SEM from three independent experiments performed in triplicate. ns, not significant, **p < 0.01, ***p < 0.001 (one-way analysis of variance [ANOVA] followed by Dunnett’s test, compared with the response […]
0.001, p=0.996, p=0.008, p=0.999 from left to right). Data represent the mean ± SEM from n=3 biologically independent experiments performed in triplicate.
(b) IP1 accumulation measurement induced by inverse agonist PF-05190457(left), agonist ghrelin (middle) and antagonist compound 21 (right). ns, not significant; nd, not detected; ***p < 0.001 […]
< 0.001, nd, nd, nd, p=0.264, nd, nd from left to right). Data represent the mean ± SEM from […]

[1] = tested on: wild-type ghrelin receptor; assay: IP1 accumulation, wild-type ghrelin receptor, HEK293 cells, 37 °C 2 h, Cisbio IP1 kit; format: cell-based, human; details: WT
Protocol: Fig. 1 Overall structures of ghrelin receptors bound to inverse agonist and agonist. a Dose-dependent responses of endogenous agonist ghrelin, inverse agonist PF-05190457 and antagonist compound 21 containing 10 nM ghrelin peptide at wild-type ghrelin receptor measured by cellular IP1 accumulation assays. […] Data represent the mean ± SEM from n = 3 biologically independent experiments performed in triplicate. b View from within the plane of the membrane. The inverse agonist-bound ghrelin receptor is represented as a wheat cartoon, and PF-05190457 is shown as a marine blue sphere. Cryo-EM structure of the agonist ghrelin-bound ghrelin receptor-Gαo1-scFv16 complex. c Ghrelin peptides and receptors are shown as deep salmon spheres and aquamarine cartoons, respectively. The Go heterotrimer and scFv16 are shown in the gray cartoon. d View from the extracellular side of the membrane. […]
IP accumulation was measured using Cisbio IP1 assay kit (Cisbio, 62IPAPEB), which has been previously described. […] IP1 was quantified using Synergy H1 microplate reader (BioTek) with excitation at 320 nm, emission at 620 nm, and 665 nm. The accumulation of IP1 was calculated according to a standard dose–response curve in GraphPad Prism 8 (GraphPad Software). […]

ghrelin receptor [2] = details: cited from earlier work
From the text: The ghrelin receptor is activated by endogenous ghrelin peptide and contains constitutive activity as ~50% of the maximal activity in the absence of ghrelin peptide.

ghrelin receptor [3] = details: cited from earlier work; remark: listed apart in the source
From the text: (50% activity independent of the endogenous ligand ghrelin). The ghrelin receptor exerts a wide range of physiological functions, including appetite regulation, alcohol consumption, adipocyte metabolism, and glucose homeostasis[11]–[14], due to its broad distribution and multiple signaling pathways through divergent G-protein coupling or β-arrestin recruitment. The endogenous agonist ghrelin is a 28-amino acid peptide secret ...

For `Cc1cc(-c2ccc3c(c2)CC[C@H]3N2CC3(CCN(C(=O)Cc4cn5cc(C)sc5n4)CC3)C2)ncn1` [PF-05190457], the “inverse agonism potency, effect of mutation” value (“inverse agonism potency” below) (ghrelin receptor mutants; D99^2.60A) was “significantly reduced the potency of inverse agonism”, the “inverse agonism potency” value (ghrelin receptor mutants; E124^3.33A) was “impaired the inverse agonism potency” and the “inverse agonism potency” value (ghrelin receptor mutants; F119^3.28A) was “essential for the inverse agonism potency”. The “inverse agonistic activity, effect of mutation” value (“inverse agonistic activity” below) (ghrelin receptor mutants; F279^6.51A) was “significantly reduced the inverse agonistic activity; also recorded: significantly reduced the potency of inverse agonism”, the “inverse agonistic activity” value (ghrelin receptor mutants; F312^7.42A) was “significantly reduced the inverse agonistic activity; also recorded: significantly reduced the potency of inverse agonism” and the “inverse agonism potency” value (ghrelin receptor mutants; Q120^3.29A) was “essential for the inverse agonism potency”. The “inverse agonism potency” value (ghrelin receptor mutants; R283^6.55A) was “impaired the inverse agonism potency”, the “inverse agonism potency” value (ghrelin receptor mutants; S308^7.38A) was “decreased the inverse agonism potency” and the “inverse agonistic activity” value (ghrelin receptor mutants; W276^6.48A) was “significantly reduced the inverse agonistic activity; also recorded: significantly reduced the potency of inverse agonism”. The “effect on constitutive (basal) activity of the ghrelin receptor” value [1] was “functions as an inverse agonist to significantly reduce basal activity; also recorded: significantly reduced”.
With `Cc1nc2ccc(Oc3ccc(Br)cc3F)nc2c(=O)n1C[C@H]1CCCN(C(C)C)C1` [compound 21] the “potency, effect of mutation” value (ghrelin receptor mutants; F279^6.51A) was “impaired the potency”, the “potency, effect of mutation” value (ghrelin receptor mutants; F312^7.42A) was “impaired the potency” and the “potency, effect of mutation” value (ghrelin receptor mutants; W276^6.48A) was “impaired the potency”. The “effect on constitutive activity of the ghrelin receptor” value (ghrelin receptor [2]) was “had no effect on the constitutive activity of the ghrelin receptor”.
In the case of “unacylated form of ghrelin: unacylated form of ghrelin (GSSFLSPEHQRVQQRKESKKPPAKLQPR; Ghrelin-28 unacylated; UniProt Q9UBU3 24-51, looked up)”, the “activation of the ghrelin receptor” value (ghrelin receptor [3]) is listed as “does not bind or activate the ghrelin receptor at all” and the “binding to the ghrelin receptor” value (ghrelin receptor [3]) is listed as “does not bind”.
